Reference: patent US9079922B2, “2-oxo-oxazolidin-3,5-diyl antibiotic derivatives” (priority 2011, dated 2015)
Converted amounts (≈) assume the structure as drawn.

Key:
[1] = test system: Acinetobacter baumanii T6474; assay: Bacterial growth minimal inhibitory concentration (microdilution, cation-adjusted Mueller-Hinton Broth); format: cell-based; details: Acinetobacter baumannii, multiply-resistant strain, in particular quinolone resistant
Procedure: (§1) Bacterial Growth Minimal Inhibitory Concentrations:
(§2) Minimal inhibitory concentrations (MICs; mg/l) were determined in cation-adjusted Mueller-Hinton Broth by a microdilution method following the description given in “Methods for Dilution Antimicrobial Susceptibility Tests for Bacteria that Grow Aerobically”, Approved standard, 7th ed., Clinical and Laboratory Standards Institute (CLSI) Document M7-A7, Wayne, Pa., USA, 2006.
(§3) All Example compounds were tested against several Gram positive and Gram negative bacteria. Staphylococcus aureus A798 and Acinetobacter baumanii T6474 are multiply-resistant strains, in particular quinolone resistant.

[2] = test system: Staphylococcus aureus A798; assay: as above; format: cell-based; details: multiply-resistant strain, in particular quinolone resistant, read-out: MIC for S. aureus A798
Procedure: as §1, §2, §3

`O=C1COc2ccc(N3C[C@@H](CNC4CN(c5ccc6c(=O)c(C(=O)O)cn(C7CC7)c6n5)C4)OC3=O)nc2N1` [Example 14, 1-cyclopropyl-4-oxo-7-(3-{[(R)-2-oxo-3-(3-oxo-3,4-dihydro-2H-pyrido[3,2-b][1,4]oxazin-6-yl)-oxazolidin-5-ylmethyl]-amino}-azetidin-1-yl)-1,4-dihydro-[1,8]naphthyridine-3-carboxylic acid] gave an MIC [1] of 0.06 µg/mL (≈ 0.11 µM) and an MIC [2] of 0.031 µg/mL (≈ 0.0566 µM).

In the case of `O=C(O)c1cn(C2CC2)c2cc(N3CCNCC3)c(F)cc2c1=O` [Cipro, ciprofloxacin, reference compound], the MIC [1] is reported as over 32 µg/mL and the MIC [2] is reported as over 32 µg/mL.

With `CCn1cc(C(=O)O)c(=O)c2ccc(N3CC(NC[C@@H]4CN(c5ccc6c(n5)NC(=O)CO6)C(=O)O4)C3)nc21` [Example 9, 1-ethyl-4-oxo-7-(3-{[(R)-2-oxo-3-(3-oxo-3,4-dihydro-2H-pyrido[3,2-b][1,4]oxazin-6-yl)-oxazolidin-5-ylmethyl]-amino}-azetidin-1-yl)-1,4-dihydro-[1,8]naphthyridine-3-carboxylic acid] the MIC [1] was 0.06 µg/mL (≈ 0.112 µM) and the MIC [2] was 0.063 µg/mL (≈ 0.118 µM).

In the case of `O=C1COc2ccc(N3C[C@@H](CNC4CCN(c5nc6c(cc5F)c(=O)c(C(=O)O)cn6C5CC5)CC4)OC3=O)nc2N1` [Example 17, 1-cyclopropyl-6-fluoro-4-oxo-7-(4-{[(R)-2-oxo-3-(3-oxo-3,4-dihydro-2H-pyrido[3,2-b][1,4]oxazin-6-yl)-oxazolidin-5-ylmethyl]-amino}-piperidin-1-yl)-1,4-dihydro-[1,8]naphthyridine-3-carboxylic acid], the MIC [1] is reported as at most 0.016 µg/mL and the MIC [2] is reported as at most 0.016 µg/mL.

`O=C1COc2ccc(N3C[C@H](CNC4CCN(c5nc6c(cc5F)c(=O)c5c(O)nsc5n6C5CC5)CC4)OC3=O)nc2N1` [Example 23, 9-cyclopropyl-6-fluoro-3-hydroxy-7-(4-{[(S)-2-oxo-3-(3-oxo-3,4-dihydro-2H-pyrido[3,2-b][1,4]oxazin-6-yl)-oxazolidin-5-ylmethyl]-amino}-piperidin-1-yl)-9H-1-thia-2,8,9-triaza-cyclopenta[b]naphthalen-4-one] showed an MIC [1] of at most 0.016 µg/mL and an MIC [2] of at most 0.016 µg/mL.

For `O=C1CSc2ccc(N3C[C@@H](CNC4CN(c5nc6c(cc5F)c(=O)ccn6C5CC5)C4)OC3=O)cc2N1` [Example 5, 6-((R)-5-{[1-(8-cyclopropyl-3-fluoro-5-oxo-5,8-dihydro-[1,8]naphthyridin-2-yl)-azetidin-3-ylamino]-methyl}-2-oxo-oxazolidin-3-yl)-4H-benzo[1,4]thiazin-3-one], the MIC [1] was 1 µg/mL (≈ 1.86 µM) and the MIC [2] was at most 0.016 µg/mL.
